Values quoted from earlier work as cited in US11344529B2, “Compositions and methods for the treatment of metabolic conditions” (Reven IP HoldCo LLC, priority 2017, dated 2022).

Legend:
[1] = more than 500 postmenopausal women

CC(C)=CCC/C(C)=C/CC/C(C)=C/CC/C(C)=C/CC1=C(C)C(=O)c2ccccc2C1=O [Vitamin K2]
total cholesterol, lipid peroxidation, aortic ester cholesterol deposition, plasma factor X activity (compared to the control group): reduce total cholesterol levels, lipid peroxidation, ester cholesterol deposition in the aorta and factor X activity in plasma
atherosclerotic plaque progression in the aorta and pulmonary arteries (rabbits, 1-10 mg/kg daily for 10 weeks): inhibited the atherosclerotic plaque progression
association of intake with coronary calcification [1]: associated with the trend toward decreasing coronary calcification
